Results on two compounds are retold here after patent publication US20260337125A1, “RADIOLABELED TYROSINE DERIVATIVE AND APPLICATION THEREOF” (Osaka University, priority 2022, published 2026).

Data set [1] concerns human pancreatic cancer cell line (PANC1). Briefly: Imaging of mice subcutaneously transplanted with human pancreatic cancer cell line PANC1. As to conditions: 2 hours after administration, 0.5 MBq/0.2 mL per mouse, tail vein. It is filed as in vivo, human (PANC1) in Balb/c-nu/nu mice.
Source text: Immunodeficient mice (Balb/c-nu/nu, 5-week-old, male) were habituated for 1 week and then subcutaneously transplanted with a human pancreatic cancer cell line (PANC1, 1×10^7 cells/mouse). After the transplantation, the mice were observed over time until tumor reached a size large enough for imaging (about 1000 mm^3). […] Two hours after administration, the mice were anesthetized by isoflurane inhalation, and planar images were taken using a γ camera (E-cam, Siemens).
A short description of data set [2]: Measurement of accumulated amounts of 211At-labeled compounds in PANC1 tumor-bearing mice. It is filed as in vivo, human (PANC1) in Balb/c-nu/nu mice. The conditions noted are these: tumor, iv, 0.1 MBq/animal, 0.1 MBq/0.2 mL per mouse, tail vein, read-out: tumor accumulation. The protocol: Radiation doses before and after the administration were measured, and a difference between them was defined as an injected dose (ID). Ten minutes and one hour after administration, the mice were anesthetized by isoflurane inhalation, the tumors were isolated by autopsy in chronological order, and their radiation doses and weights were measured using a gamma counter (2480 Wizard^2, PerkinElmer) and a semimicro scale (Shimadzu Corporation, readability 10 μg), respectively. For comparison between accumulated amounts, accumulated amounts per unit amount (% ID/g) were calculated.
In Table 1, the amounts of the ^211At-labeled compounds accumulated in tumors of the PANC1 tumor-bearing models (% ID/g) are shown. It should be noted that in Table 1, “OMe” is ^211At-AAMT-OMe, “OEt” is ^211At-AAMT-OEt, “OPr” is ^211At-AAMT-OPr, and “OH” is ^211At-AAMT.

Data set [3] concerns CDDP-resistant A549 (A549 CDDP-r). As to conditions: 48 hours, 37 °C, Cell counting kit-8. On the procedure: Two days before experiment, A549 and CDDP-resistant A549 (A549 CDDP-r) were each seeded in a 96-well plate at a concentration of 1×10^5 cells/mL. ^211At-AAMT-OMe or ^211At-AAMT adjusted to a predetermined concentration was added to A549 cells and CDDP-resistant A549 cells, respectively, and the cells were cultured (CO2 5%, 37 °C). After the cultivation for 48 hours, Cell counting kit-8 (DOJINDO LABORATORIES) was added. After the addition, the cells were cultured at 37 °C for 1 hour, and cell viability was measured using absorbance at 450 nm as an indicator.
For orientation: Tetrazolium assays rely on reduction of a dye to a coloured formazan, in cell work by metabolically active cells.

The conditions of data set [4]: background art; cited from earlier work.
Data set [5] relates to gemcitabine-resistant human pancreatic cancer cell line, PANC1 (PANC1 Gem-r). Nature of the data set: Cell viability of Gemcitabine-resistant PANC1 (PANC1 Gem-r) with gemcitabine. It is filed as cell-based. The conditions noted are these: gemcitabine 30 μg/mL. The protocol:
Gemcitabine (Gem) was added to a human pancreatic cancer cell line, PANC1 at an initial concentration of 100 ng/mL. After 3 days, dead cells were removed, and gemcitabine was again added. Cells that grew like a human pancreatic cancer cell line, PANC1 even in the presence of gemcitabine were isolated and maintained for 3 months while gradually increasing the concentration of gemcitabine in a culture medium.

The structures appear in SMILES notation.

Turning to `C[C@](N)(Cc1ccc(O)c([At])c1)C(=O)O` [^211At-AAMT, astato(^211At)-α-methyl-L-tyrosine, reference compound], in data set [1], the “accumulation in tumor site (planar γ camera image)” value is reported as “accumulated in the tumor sites”. The tissue uptake at 10 min in data set [2] (10 minutes after administration) amounted to 0.29 %ID/g. In addition, the tissue uptake at 1 h in data set [2] (1 hour after administration) was found to be 2.49 %ID/g. In addition, in data set [3], the cytotoxicity entry was “has cytotoxicity against CDDP-resistant A549 (A549 CDDP-r)”. Besides, in data set [4], the clearance result was “fast clearance”.
Regarding `Nc1ccn([C@@H]2O[C@H](CO)[C@@H](O)C2(F)F)c(=O)n1` [gemcitabine, Gemcitabine], the cell viability result in data set [5] is listed as “still alive even at 30 μg/mL”.
